The source of these data is the supplement of paper PMC11208160.
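Note: IS621 bridge recombinase in Escherichia coli cells against a fixed T5 target plasmid.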

A short description of the series: recombinant UMI read abundance after kanamycin selection (control-corrected) (log10(CPM+1)); higher = more efficient recombination; extreme values may be limits of the assay; sequences stand for … in AGTGCAGAGAAAATCGGCCAGTTTTCTCTGCCTGCAGTCCGCATGCCGTGGGACCCCTTGGGTTCTAACCTGTTGCCTAGATTTATGCAGCGGACTGCCTTTCTCCCAAAGTGATAAACCGG…AGGTTGGTTTCACT; site = the 11-nt donor. In outline:
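In a pooled Escherichia coli screen for the IS621 bridge recombinase, donor and donor-binding-loop pairs were each placed with a 12-nt UMI on a plasmid bearing a promoterless kanamycin gene. This library was co-electroporated with a target plasmid encoding a fixed target and T7-inducible recombinase, and cells were plated either on IPTG (0.07 mM) plus kanamycin or without selection, in two replicates each. Recombinant UMIs were PCR-amplified across the donor–target junction and sequenced, and counts were converted to CPM, averaged over replicates, scaled by control-derived factors and reported as log10(CPM+1).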
Take “CACTGCCCATGGACCGGTTTTCCCGGTAATCCGTATTTGTT (site CACTGCCCTAA)”: the “recombinant UMI read abundance (log10)” value came to 0.276.
Next, “CACTGCTCATGGACCGGTTTTCCCGGTAATCCGTATTTGAA (site CAATGCTCTTT)”: 0.0153; “CACTGCTCATGGACCGGTTTTCCCGGTAATCCGTATTTGAA (site CACTGCTCTTT)”: 2.09; “CACTGCTCATGGACCGGTTTTCCCGGTAATCCGTATTTGAA (site CAGTGCTCTTT)”: 0.00554.
The value for “CACTGCTCATGGACCGGTTTTCCCGGTAATCCGTATTTGAA (site CATTGCTCTTT)” was 0.0128; that for “CACTGGACATGGACCGGTTTTCCCGGTAATCCGTATTTGGT (site CACTGGACTAC)” was 1.24.
Next, “CAGAAAACATGGACCGGTTTTCCCGGTAATCCGTATTTGGG (site CAGAAAACTCC)”: 0.991; “CAGACATCATGGACCGGTTTTCCCGGTAATCCGTATTTGCT (site CAGACATCTAG)”: 2.46; “CAGACATCATGGACCGGTTTTCCCGGTAATCCGTATTTGCT (site CCGACATCTAG)”: 1.06.
With “CAGACATCATGGACCGGTTTTCCCGGTAATCCGTATTTGCT (site CGGACATCTAG)”, the “recombinant UMI read abundance (log10)” value is 1.16.
Next, “CAGACATCATGGACCGGTTTTCCCGGTAATCCGTATTTGCT (site CTGACATCTAG)”: 1.42.
Next, “CAGACCGCATGGACCGGTTTTCCCGGTAATCCGTATTTGAT (site CAGACCGCTAT)”: 2.7; “CAGACGCCATGGACCGGTTTTCCCGGTAATCCGTATTTGAC (site CAGACGCCTGT)”: 1.91.
Next, “CAGACGGCATGGACCGGTTTTCCCGGTAATCCGTATTTGGG (site CAGACGGCTCC)”: 0.191; “CAGAGAGCATGGACCGGTTTTCCCGGTAATCCGTATTTGTA (site CAGAGAGCTTA)”: 2.94.
Consider “CAGCACGCATGGACCGGTTTTCCCGGTAATCCGTATTTGGT (site CAGCACGCTAC)”, for which the “recombinant UMI read abundance (log10)” value was determined as 1.61.
Next, “CAGCCCACATGGACCGGTTTTCCCGGTAATCCGTATTTGAA (site CAGCCCACTTT)”: 1.15.
In the case of “CAGCTATCATGGACCGGTTTTCCCGGTAATCCGTATTTGTC (site CAGCTATCTGA)”, the “recombinant UMI read abundance (log10)” value worked out at 3.3.
Take “CAGGAGTCATGGACCGGTTTTCCCGGTAATCCGTATTTGCC (site CAGGAGTCTGG)”: the “recombinant UMI read abundance (log10)” value came to 3.4.
Next, “CAGGAGTCATGGACCGGTTTTCCCGGTAATCCGTATTTGCC (site CCGGAGTCTGG)”: 0.
“CAGGAGTCATGGACCGGTTTTCCCGGTAATCCGTATTTGCC (site CGGGAGTCTGG)”: the “recombinant UMI read abundance (log10)” value is 0.
Take “CAGGAGTCATGGACCGGTTTTCCCGGTAATCCGTATTTGCC (site CTGGAGTCTGG)”: the “recombinant UMI read abundance (log10)” value amounted to 1.73.
The value for “CAGGCAGCATGGACCGGTTTTCCCGGTAATCCGTATTTGCT (site CAAGCAGCTAG)” was 1.66; that for “CAGGCAGCATGGACCGGTTTTCCCGGTAATCCGTATTTGCT (site CACGCAGCTAG)” was 0; that for “CAGGCAGCATGGACCGGTTTTCCCGGTAATCCGTATTTGCT (site CAGGCAGCTAG)” was 1.92.
Next, “CAGGCAGCATGGACCGGTTTTCCCGGTAATCCGTATTTGCT (site CATGCAGCTAG)”: 0; “CAGGCGACATGGACCGGTTTTCCCGGTAATCCGTATTTGGG (site CAGACGACTCC)”: 0.0355.
Next, “CAGGCGACATGGACCGGTTTTCCCGGTAATCCGTATTTGGG (site CAGCCGACTCC)”: 0.0323; “CAGGCGACATGGACCGGTTTTCCCGGTAATCCGTATTTGGG (site CAGGCGACTCC)”: 0.209; “CAGGCGACATGGACCGGTTTTCCCGGTAATCCGTATTTGGG (site CAGTCGACTCC)”: 0.0086.
In the case of “CAGGGCACATGGACCGGTTTTCCCGGTAATCCGTATTTGGA (site CAGGGCACTTC)”, the “recombinant UMI read abundance (log10)” value is 0.471.
The value for “CAGGTCGCATGGACCGGTTTTCCCGGTAATCCGTATTTGAT (site CAGGTCGCTAT)” was 2.33.
The value for “CAGTCAACATGGACCGGTTTTCCCGGTAATCCGTATTTGGG (site CAGTCAACTCC)” was 0.146.
Regarding “CAGTCAACATGGACCGGTTTTCCCGGTAATCCGTATTTGGG (site CAGTCCACTCC)”, the “recombinant UMI read abundance (log10)” value was 0.018.
The value for “CAGTCAACATGGACCGGTTTTCCCGGTAATCCGTATTTGGG (site CAGTCGACTCC)” was 0.0226; that for “CAGTCAACATGGACCGGTTTTCCCGGTAATCCGTATTTGGG (site CAGTCTACTCC)” was 0.0255; that for “CAGTCGACATGGACCGGTTTTCCCGGTAATCCGTATTTGGT (site CAGTCGACTAC)” was 1.13.
As to “CAGTCGACATGGACCGGTTTTCCCGGTAATCCGTATTTGGT (site CAGTCGACTCC)”, the “recombinant UMI read abundance (log10)” value turned out to be 0.0077.
The value for “CAGTCGACATGGACCGGTTTTCCCGGTAATCCGTATTTGGT (site CAGTCGACTGC)” was 1.41; that for “CAGTCGACATGGACCGGTTTTCCCGGTAATCCGTATTTGGT (site CAGTCGACTTC)” was 0.56.
In the case of “CAGTGCTCATGGACCGGTTTTCCCGGTAATCCGTATTTGGT (site CAGTGCTCTAC)”, the “recombinant UMI read abundance (log10)” value was 2.49.
The value for “CAGTTGACATGGACCGGTTTTCCCGGTAATCCGTATTTGGG (site CAGTAGACTCC)” was 0.
Next, “CAGTTGACATGGACCGGTTTTCCCGGTAATCCGTATTTGGG (site CAGTCGACTCC)”: 0.0208; “CAGTTGACATGGACCGGTTTTCCCGGTAATCCGTATTTGGG (site CAGTGGACTCC)”: 0.00569; “CAGTTGACATGGACCGGTTTTCCCGGTAATCCGTATTTGGG (site CAGTTGACTCC)”: 0.53.
For the sequence “CATAAAGCATGGACCGGTTTTCCCGGTAATCCGTATTTGAT (site CATAAAGCTAT)”, the “recombinant UMI read abundance (log10)” value came to 2.1.
The value for “CATAAAGCATGGACCGGTTTTCCCGGTAATCCGTATTTGAT (site CCTAAAGCTAT)” was 0.00418; that for “CATAAAGCATGGACCGGTTTTCCCGGTAATCCGTATTTGAT (site CGTAAAGCTAT)” was 0.166; that for “CATAAAGCATGGACCGGTTTTCCCGGTAATCCGTATTTGAT (site CTTAAAGCTAT)” was 0.
Next, “CATACGCCATGGACCGGTTTTCCCGGTAATCCGTATTTGGG (site CATACGCCTCC)”: 0.0136.
The value for “CATCAGCCATGGACCGGTTTTCCCGGTAATCCGTATTTGAG (site CATCAGCCTCT)” was 0.441; that for “CATCAGTCATGGACCGGTTTTCCCGGTAATCCGTATTTGCA (site CATCAGTCTTG)” was 3.13.
